Test results: US9359451B2, “Methods and compositions for treating trauma-hemorrhage using estrogen and derivatives thereof” (THE UAB RESEARCH FOUNDATION, priority 2012, dated 2016)

What was measured:
[1] = test system: splenic macrophages (sMΦ) and peritoneal macrophages (pMΦ); experiment: Splenic and peritoneal macrophage cytokine release after trauma-hemorrhage (ex vivo, LPS); format: in vivo, mouse; details: 24 h after trauma-hemorrhage, LPS 48 h
Procedure: Experimental groups. Ovariectomy was performed in female CBA/J mice 2 wk before trauma-hemorrhage using two dorsolateral incisions. […] Two weeks after ovariectomy, the animals were divided into four groups. Groups 1 and 2 consisted of sham-operated ovariectomized females, which were neither hemorrhaged nor resuscitated. Animals in groups 3 and 4 consisted of ovariectomized females, which were subjected to the trauma-hemorrhage procedure. Immediately before initiation of fluid resuscitation, animals in groups 1 and 3 received a subcutaneous injection of vehicle ([…] corn oil), and animals in groups 2 and 4 were treated with E2 ([…]/25 g body wt dissolved in […] corn oil). Each group consisted of 7-8 animals.
Trauma-hemorrhage procedure. Mice in the trauma-hemorrhage groups were lightly anesthetized with methoxyflurane (Metofane; Pitman Moore, Mundelein, Ill.) and restrained in a supine position, and a 2.5-cm midline laparotomy (i.e., soft tissue trauma induced) was performed, which was then closed aseptically in two layers using 6-0 Ethilon sutures (Ethicon, Somerville, N.J.). Both femoral arteries were then aseptically cannulated with polyethylene-10 tubing (Clay-Adams, Parsippany, N.J.) using a minimal dissection technique, and the animals were allowed to awaken. Blood pressure was constantly monitored by attaching one of the catheters to a blood pressure analyzer (Micro-Med, Louisville, Ky.). Lidocaine was applied to the incision sites to provide analgesia during the study period. Upon awakening, the animals were bled through the other catheter to a mean arterial blood pressure of 35±5 mmHg (mean arterial blood pressure prehemorrhage was 95±5 mmHg), which was maintained for 90 min. At the end of that procedure, the animals were resuscitated with four times the shed blood volume in the form of lactated Ringer solution. The catheters were then removed, the vessels were ligated, and the groin incisions were closed. Sham-operated animals underwent the same surgical procedure, which included ligation of both femoral arteries, but neither hemorrhage nor fluid resuscitation was carried out. There was no mortality observed in this model of trauma-hemorrhage.
Preparation of sMΦ and pMΦ culture. Spleens were harvested aseptically, and sMΦ cultures were established as previously described in detail (Zellweger 1996). Resident pMΦ were harvested by peritoneal lavage at 24 h after sham operation or trauma-hemorrhage and resuscitation, and monolayers were established as previously described (Ayala 1990). The monolayers of sMΦ and pMΦ (1×10^6 cells/ml) were stimulated with […] of lipopolysaccharide W/ml Click's medium containing 10% heat-inactivated FBS for 48 h at 37° C., 5% CO2, and 90% humidity to assess the cells' ability to release cytokines (Lipopolysaccharide W was from Escherichia coli 055:B5, Difco Laboratories, Detroit, Mich.) At the end of the incubation period, the culture supernatants were removed, centrifuged at 300 g for 15 min, divided into aliquots, and stored.
IL-10 concentrations in macrophage and splenocyte supernatants and IFN-γ levels in the splenocyte supernatants were determined using sandwich-enzyme-linked immunosorbent assay technique (ELISA) according to the manufacturer's recommendations (BD OptEIA ELISA set; BD Pharmingen, San Diego, Calif.).
IL-6 activity was determined by assessing the 72-h proliferation of the IL-6-dependent murine B cell hybridoma 7TD1 stimulated by serial dilutions of sMΦ and pMΦ supernatants (Ayala 1992). For the last 3 h of incubation, […] of a 3-(4,5-dimethylthiazol-2-yl)-2,5-diphenyltetrazolium bromide solution (5 mg/ml in RPMI 1640; Sigma Chemical, St. Louis, Mo.) was added to each well. The amount of dark blue formazan crystal formation was then measured spectrophotometrically. […]

[2] = test system: Male SD rats; experiment: Survival and blood pressure after trauma-hemorrhage with 60% blood loss and no fluid resuscitation; format: in vivo, rat
Procedure: 16 rats were subjected to 60% removal of blood volume, using the same protocol found in Example 5.
Furthermore, crystalloid fluid resuscitation was administered following an initial 3-hour interval after the trauma and major blood loss, and rats were followed for 7 days. It has been observed that rats which survive for the initial 3 hours uniformly go on to survive for prolonged period of time and were then sacrificed. The survival rate is 68% for estrogen-treated rats, while all untreated control rats have died within the initial 3-hour interval (see FIG. 21).
Although E2 administration after trauma-hemorrhage (T-H) and fluid resuscitation produces salutary effects on organ functions, it was not known if E2 has any beneficial effects after major blood loss in the absence of fluid resuscitation. Male SD rats ˜250 g) underwent T-H (tissue trauma, BP 40 mmHg in 10 min and maintained at that BP by further blood withdrawal until maximum bleed out (MBO, 60% of total blood volume) occurred (45:t5 min)). E2 i.v. (1 mg/Kg, 0.4 ml/Kg volume, i.e., 120 μL/300 g body weight) or vehicle (cyclodextrin, CD) was then infused. No additional fluid was given for 3 hours. If rats survived, they received Ringer's lactate, 4× the MBO volume. A custom-fabricated 31p coil was placed on the surface of the rat's liver after laparotomy in another group, and spectra acquired using 4.7T NMR spectroscopy via a 31p coil in real time before and during hemorrhagic shock. Shock increased phosphomonoester and Pi with a concomitant decrease in β-ATP in both groups.

[3] = test system: degenerate neurons; experiment: Traumatic brain injury: Fluro-Jade staining of degenerate neurons; format: in vivo, rat; details: brain cortex or CA 2/3 hippocampus, 24 hours after 1 mg/kg iv given 1 hour after LFP TBI
Text: As such, the lesser the FJ staining, the greater the neuroprotection. Sections stained with FJ are quantified as FJ positive cells, and are taken from brain cortex or CA 2/3 region of the hippocampus. The groups shown in the graph above are sham+vehicle, sham+E2, TBI+vehicle and TBI+E2.

[4] = test system: cardiac performance; experiment: SPECT-CT of cardiac performance after severe hemorrhage; format: in vivo, rat; details: FIG. 46
Procedure: This was measured by SPECT-CT (single photon emission computed tomography-computed tomography) which enables the measurement of the volume of blood forced from the heart visualized through 3-D, real-time imaging (FIG. 46).

[5] = rat, in vivo, iv
[6] = test system: isolated vascular rings; experiment: Vascular reactivity of isolated vascular rings in a physiological bath; parameters: species or system rat or pig; details: antagonist added to EE-3-SO4
Procedure: Data to delineate the mechanism of action for EE-3-SO4 vis-à-vis effects on the cardiovascular system was acquired. While it is well known that estrogens act on the vascular system by a variety of mechanisms including vasorelaxation per se, specific confirmation of this fact for EE-3-SO4 was needed. […] Vessels are contracted by a variety of agents (i.e., endothelin-1, phenylephrine). The action(s) are measured with a force transducer and recorded digitally. […] (see FIG. 42).

Compound	pMΦ IL-1β release [1]	pMΦ IL-6 production [1]	pMΦ IL-10 production [1]	sMΦ IL-6 release [1]	sMΦ IL-10 release [1]	sMΦ IL-12 production [1]	3-hour survival rates without fluid resuscitation ([2]; E2 i.v. 1 mg/Kg, 0.4 ml/Kg at MBO (60% of total blood volume), vehicle cyclodextrin)	long-term survival after resuscitation ([2]; Ringer's lactate 4x MBO volume after 3 hours)	Fluro-Jade positive cells (neurodegeneration) [3]	cardiac performance as ejection fraction (SPECT-CT) [4]	blood levels after injection [5]	antagonism of EE-3-SO4's vessel relaxation [6]
C[C@]12CC[C@@H]3c4ccc(O)cc4CC[C@H]3[C@@H]1CC[C@@H]2O [17β-estradiol]	partial restoration of pMΦ IL-1β release	maintained at sham levels	not affected by either trauma-hemorrhage or E2 treatment	did not influence IL-6 release	significantly reduced IL-10 release	prevented the depression in sMΦ IL-12 production	markedly improves 3-hour survival rates	increases long-term survival after resuscitation	greater that twofold fewer cells undergoing neurodegeneration	substantially enhance cardiac performance as ejection fraction	attains high blood levels rapidly	
C[C@]12CC[C@@H]3c4ccc(O)cc4C[C@@H](CCCCCCCCC[S+]([O-])CCCC(F)(F)C(F)(F)F)[C@H]3[C@@H]1CC[C@@H]2O (stereo partly drawn) [ICI 182,780]												completely blocked
